Experimental data taken from patent US9649310B2, “Certain kynurenine-3-monooxygenase inhibitors, pharmaceutical compositions, and methods of use thereof” (CHDI Foundation, Inc., priority 2011, dated 2017).

Target: T1, KMO mouse enzyme (Mus musculus, UniProt Q91WN4)
T1 construct: KMO enzyme prepared at Evotec from mouse liver (4-6 weeks old) via mitochondria isolation; from tissue; host or cells: mouse liver (4-6 weeks old), mitochondria isolation at Evotec
Assay: Mouse KMO enzyme assay: L-kynurenine hydroxylation to 3OH-KYN by LC/MS
Type: biochemical
Conditions: compound at 10 μM; KMO from mouse liver mitochondria; read-out: INH.Mouse @ 10 μM
Description: Product is quantified by multiple reaction monitoring (MRM method).
• Compound: Stock concentrations: 10 mM in 100% DMSO • Enzyme: KMO enzyme prepared at Evotec from mouse liver (4-6 weeks old) via mitochondria isolation as described in the literature • Substrate: L-Kynurenine (Sigma: Cat #K3750, stock concentration:
10 mM in 100 mM potassium phosphate buffer, pH 7.4)

T1 sequence (Q91WN4 whole entry): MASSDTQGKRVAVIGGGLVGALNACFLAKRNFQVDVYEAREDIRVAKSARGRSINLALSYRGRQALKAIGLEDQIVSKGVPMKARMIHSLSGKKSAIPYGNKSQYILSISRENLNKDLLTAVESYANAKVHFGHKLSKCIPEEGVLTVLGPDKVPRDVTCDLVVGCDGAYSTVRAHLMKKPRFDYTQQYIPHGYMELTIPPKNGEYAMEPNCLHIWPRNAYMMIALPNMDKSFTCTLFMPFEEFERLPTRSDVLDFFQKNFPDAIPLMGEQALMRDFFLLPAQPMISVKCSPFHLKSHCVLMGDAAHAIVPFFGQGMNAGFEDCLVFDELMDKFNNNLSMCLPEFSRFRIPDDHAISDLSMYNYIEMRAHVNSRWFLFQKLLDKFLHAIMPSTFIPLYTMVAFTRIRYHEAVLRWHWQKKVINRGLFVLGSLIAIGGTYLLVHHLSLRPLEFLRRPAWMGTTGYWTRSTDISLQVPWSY

inhibition at 10 µM [%] | SMILES
30 | O=C(O)C1CNCCN1c1cc(-c2ccc(Cl)c(Cl)c2)ncn1 (stereo not shown) [1-(6-(3,4-dichlorophenyl)pyrimidin-4-yl)piperazine-2-carboxylic acid]
14 | O=C(O)C1CCN(c2cc(-c3ccc(Cl)c(Cl)c3)ncn2)C1 (stereo not shown) [1-(6-(3,4-dichlorophenyl)pyrimidin-4-yl)pyrrolidine-3-carboxylic acid]
71 | Clc1cc(-c2cc(-c3ncco3)ncn2)ccc1OC1CC1 [2-(6-(3-chloro-4-cyclopropoxyphenyl)pyrimidin-4-yl)oxazole]
0 | FC(F)(F)c1c[nH]c(-c2cc(-c3ccc(Cl)c(Cl)c3)ncn2)n1 [4-(3,4-dichlorophenyl)-6-(4-(trifluoromethyl)-1H-imidazol-2-yl)pyrimidine]
84 | O=C(O)C1CCC(c2cc(-c3ccc(OC4CC4)c(Cl)c3)ncn2)N1 (stereo not shown) [5-(6-(3-chloro-4-cyclopropoxyphenyl)pyrimidin-4-yl)pyrrolidine-2-carboxylic acid]
7 | O=C(O)[C@H]1CCCN1c1cc(-c2ccc(Cl)c(Cl)c2)ncn1 [(R)-1-(6-(3,4-dichlorophenyl)pyrimidin-4-yl)pyrrolidine-2-carboxylic acid]

More lines, now with the values behind:

SMILES | inhibition at 10 µM [%]
O=c1[nH]c(-c2cc(-c3ccc(OC4CC4)c(Cl)c3)ncn2)no1 [3-[6-(3-chloro-4-cyclopropoxyphenyl)pyrimidin-4-yl]-4,5-dihydro-1,2,4-oxadiazol-5-one] | 93
Clc1cc(-c2cc(-c3nn[nH]n3)ncn2)ccc1OC1CC1 [4-(3-chloro-4-cyclopropoxyphenyl)-6-(1H-1,2,3,4-tetrazol-5-yl)pyrimidine] | 100
O=C(O)C1CN(c2cc(-c3ccc(Cl)c(Cl)c3)ncn2)CCN1 (stereo not shown) [4-(6-(3,4-dichlorophenyl)pyrimidin-4-yl)piperazine-2-carboxylic acid] | 0
CC(C)Oc1ccc(-c2cc(C3CNC(C(=O)O)C3)ncn2)cc1Cl (stereo not shown) [4-(6-(3-chloro-4-isopropoxyphenyl)pyrimidin-4-yl)pyrrolidine-2-carboxylic acid] | 71
O=C(O)[C@@H]1CCCN1c1cc(-c2ccc(Cl)c(Cl)c2)ncn1 [(S)-1-(6-(3,4-dichlorophenyl)pyrimidin-4-yl)pyrrolidine-2-carboxylic acid] | 11

Test system: not listed separately
Assay: Solubility remark made during LCMS characterisation
Type: physicochemical
Conditions: solvent for LCMS analysis

SMILES | solubility (remark in words)
O=c1[nH]nc(-c2cc(-c3ccc(Cl)c(Cl)c3)ncn2)[nH]1 | very unsoluble compound- LCMS unobtainable ^1H NMR (250 MHz, DMSO- d6) ppm 9.27-9.32 (1 H, m), 8.39-8.47 (2 H, m), 8.17- 8.25 (1 H, m), 7.76-7.85 (1 H, m)
Cn1[nH]cc(-c2cc(-c3ccc(Cl)c(Cl)c3)ncn2)c1=O | Compound is insufficiently soluble in any acceptable solvent in order to obtain a meaningful LCMS 1H NMR (500 MHz, DMSO-d6) d ppm 8.88 (1 H, s), 8.44 (1 H, br. s.), 8.26 (1 H, br. s.), 8.19 (1 H, d), 8.06 (1 H, br. s.), 7.85 (1 H, d), 3.45 (3 H, s)
